# Patent publication US12161630B2, “Methods to control infection using new generation small molecule growth inhibitors” (priority 2017, dated 2024)
# What was measured:
# Salmonella Anatum = assay: MIC and MBC dose-response, serotype Anatum; type: cell-based, Salmonella enterica; conditions: MIC identical to MBC
# Experimental: (§1) An overnight Salmonella suspension was normalized at 0.05 OD600 (approximately 3.5×10^7 CFU/ml) with an adjusted M9 minimal broth medium (12.7 mM Na2HPO4 7H2O; 22 mM KH2PO4; 18.7 mM NH4Cl; 2 mM MgSO4; 0.1 mM CaCl2; 0.4% glucose; 0.05% casamino acids). 100 μL of the suspension plus 2 μl of SMs (200 μM) were transferred into each well of a sterile, non-treated, flat bottom 96-well plate. Bacteria alone (negative control, NC), 2% DMSO plus bacteria (DMSO control), 20 μg/ml chloramphenicol or 50 μg/ml kanamycin plus bacteria (positive controls, PC), and M9 medium only were used as control. Plates were incubated in a Sunrise™ Tecan kinetic microplate reader for 12 hrs at 37° C. and the optical density (OD) was measure at 600 nm as described above. Percentage of inhibition=(OD600 SM−OD600 NC)/(OD600 NC)×100. […] Cultures from wells showing no turbidimetric increase were transferred onto a XLT4 agar plate. Plates were incubated at 37° C. for 36 hrs.
# (§2) Screens were performed as described in the primary screen. The lowest SM concentration with a static effect was considered as the minimal inhibitory concentration (MIC) and the lowest SM concentration with a cidal effect was considered as the minimal bactericidal concentration (MBC).
# Salmonella Saint-Paul = assay: MIC and MBC dose-response, serotype Saint-Paul; type: cell-based; conditions: MIC identical to MBC
# Experimental: as §1, §2
# chicken cecal microbiota = assay: Cecal microbiota 16S rRNA sequencing of SM-treated infected chickens; type: in vivo, broiler chickens; conditions: compared to DMSO group (P<0.01)
# Experimental: DNA extraction and sequencing: Microbiota diversity and abundance were investigated using the second cecum directly stored in −80° C. Genomic DNA was extracted using the PureLink Microbiome DNA Purification Kit (Life Technologies, Invitrogen Corp.), combined with RNAse treatment (10 units/hour). About 0.15 g to 0.20 g of cecum content was processed according to manufacturer's instructions. After quality control with electrophoresis and nanodrop, extracted DNA samples were subjected for 16S rRNA V4-V5 variable region sequencing. As a first step of targeted sequencing, amplicon libraries were prepared by using Phusion® High-Fidelity PCR Kit (New England Biolabs Inc, Ipswich, MA) in a 96-well plate. 25 μL of PCR reactions were prepared using 5 μl (5×) of PCR buffer, 4 μl (5 ng/μl) of DNA sample, and 2.5 μl (2 μM) primer, 0.5 μl (10 mM) dNTPs, 0.2 μl of enzyme, and nuclease free water to final volume. The barcoded primers targeted the V4-V5 variable region. […] Sample concentrations were measured, and equal concentration of all samples were pooled into one flow cell and sequenced using Illumina MiSeq 300-base, paired-end kit at the Molecular and Cellular Imaging Center (Ohio Agricultural Research & Development Center, Wooster, OH).
# Bioinformatics analyses: After sequencing, a quality control of the raw reads was performed using FastQC (Babraham Bioinformatics, Cambridge, USA). […] Details concerning the parameters used are described in mcbl.readthedocs.io/en/latest/mcbl-tutorials-AD-clean.html. […] Then samples were processed using Quantitative Insights Into Microbial Ecology (QIIME) software version 1.9 (16). Operational Taxonomy Units (OTUs) were determined by clustering reads against Greengenes 16S reference dataset (2013-08 release) at a 97% identity using open picking reference OTU (pick_open_reference_otus.py) method using default parameters, except setting minimum OTU size to 10. […]
# S. typhimurium WT = assay: High-throughput primary screen for S. typhimurium growth inhibitors at 200 μM; type: cell-based, Salmonella enterica subsp. enterica serovar Typhimurium LT2; conditions: adjusted M9 minimal broth, 12 hrs, 37° C., bactericidal = 100% growth inhibition and no growth on XLT4 agar, bacteriostatic = 100% growth inhibition but growth on XLT4 agar
# Experimental: Identification of S. typhimurium growth inhibitors: The 4182 small molecules (SMs) were screened at 200 μM against S. typhimurium WT using HTS assay in a 96-well plate format. An overnight Salmonella suspension was normalized at 0.05 OD600 (approximately 3.5×10^7 CFU/ml) with an adjusted M9 minimal broth medium (12.7 mM Na2HPO4 7H2O; 22 mM KH2PO4; 18.7 mM NH4Cl; 2 mM MgSO4; 0.1 mM CaCl2; 0.4% glucose; 0.05% casamino acids). 100 μL of the suspension plus 2 μl of SMs (200 μM) were transferred into each well of a sterile, non-treated, flat bottom 96-well plate. Bacteria alone (negative control, NC), 2% DMSO plus bacteria (DMSO control), 20 μg/ml chloramphenicol or 50 μg/ml kanamycin plus bacteria (positive controls, PC), and M9 medium only were used as control. Plates were incubated in a Sunrise™ Tecan kinetic microplate reader for 12 hrs at 37° C. and the optical density (OD) was measure at 600 nm as described above. Percentage of inhibition=[…]. SMs were identified as growth inhibitors if their inhibition value after incubation was above 20% (value representing the inhibition level monitored with the DMSO controls). Cultures from wells showing no turbidimetric increase were transferred onto a XLT4 agar plate. Plates were incubated at 37° C. for 36 hrs.
SMILES,MIC/MBC (Salmonella Anatum) [µM],MIC/MBC (Salmonella Saint-Paul) [µM],abundance of Salmonella OTUs in ceca (chicken cecal microbiota),Effect on S. Typhimurium at 200 μM (S. typhimurium WT)
"CC1CCC(C(C)C)C(OC(=O)Cn2c[n+](CC(=O)OC3CC(C)CCC3C(C)C)c3ccccc32)C1.[Cl-] (stereo not drawn) [SM1, 1,3-bis{2-[(2-isopropyl-5-methylcyclohexyl)oxy]-2-oxoethyl}-1H-3,1-benzimidazol-3-ium chloride]",100,100,reduction,Bactericidal
"CCCCCCCCCCCCCCCC[n+]1ccn(CC#N)c1.[Cl-] [SM3, 1-(cyanomethyl)-3-hexadecyl-1H-imidazol-3-ium chloride]",25,50,–,Bactericidal
"CCCCCCCCCCCCCCCCn1c[n+](C)c2ccccc21.[Br-] [SM4, 1-hexadecyl-3-methyl-1H-3,1-benzimidazol-3-ium bromide]",10,10,reduced abundance,Bactericidal
"CCOc1cc(/C=N/N=C(N)N)ccc1OCc1ccc(Cl)cc1 [SM5, N″-{4-[(4-chlorobenzyl)oxy]-3-ethoxybenzylidene}carbonohydrazonic diamide]",50,50,reduced abundance,Bactericidal
